Laboratory results taken from US11279703B2, “Fused pyrimidine compounds as BRD4 and JAK2 dual inhibitors and methods for use thereof” (APTOSE BIOSCIENCES INC., priority 2016, dated 2022).

Experiments:
[1] = target: BRD4-BD1 (Homo sapiens (Human), UniProt O60885); experiment: AlphaLisa bromodomain binding assay, BRD4-BD1; details: Table 6; read-out: BRD4(1) IC50
Excerpt: An AlphaLisa assay was used to observe bromodomain binding and measure IC50s for the compounds disclosed herein. An AlphaLisa assay is a bead-based assay used to detect interactions between bromodomains and polyacetylated histone peptides. Donor and acceptor beads bound to target and ligand are brought into proximity by this protein-protein interaction.
Equipment Required • 1. […] Plate centrifuge • 3. Plate shaker • 4. […] Single channel and multi-channel pipettes • 6. Microplate reader (Pherastar)
(§1) Stock and Final Assay Concentrations (FAC) • 1. All reference and test compounds are made at a concentration of 10 mM in DMSO. Compounds are serially diluted in DMSO and a FAC starting from 10 μM to 10 point 3 fold serial dilutions is arrived. FAC of DMSO is 1%. • 2. Enzyme stock and FAC
Biotinylated substrate (Acetylated histone H4, biotinylated substrate—cat no. AS64989-025, Anaspec) stock and FAC
• 4. Acceptor and donor beads stock and FAC
Buffers • For the enzyme and substrate dilution following buffer is used (for 50 ml) • HEPES: 50 mM 2.5 ml • NaCl: 25 mM 1.25 ml • DTT: 10 mM 0.05 ml • BSA: 0.1% 0.05 g • MilliQ water: 45.7 ml • For dilution of acceptor and donor beads AlphaLISA 5× epigenetics Buffer Perkin Elmer (Cat: AL008C) is used at 1× concentration.
Procedure • 1. […] Tap the plate gently • 3. […] Cover with plate sealer • 5. […] Incubate the plate at room temperature for 10 minutes • 7. Add 10 μl of the substrate • 8. Cover with plate sealer • 9. […] Cover with plate sealer • 14. […] Cover with plate sealer • 18.
(§2) The percent inhibition is calculated in the excel analysis template and the IC50 values are subsequently determined using a sigmoidal dose-response curve (variable slope) using GraphPad Prism® 5 software.

[2] = target: JAK2 (Homo sapiens (Human), UniProt O60674); experiment: HTRF kinase assay, JAK2; type: biochemical; details: Table 6
Excerpt: A kinase assay with HTRF was used to observe JAK activity and calculate the IC50s of compounds disclosed herein. HTRF is an enzymatic assay used to determine the amount of phosphorylated peptide. FRET (Fluorescence Resonance Energy Transfer) is based on the transfer of energy between two fluorophores—a donor and an acceptor—when in close proximity. Molecular interactions between biomolecules can be assessed by coupling each partner with a fluorescent label and by detecting the level of energy transfer. The amount of phopshorylated peptide can be detected using a combination of a Eu 3+Cryptate labeled anti-phospho residue antibody, SA-XL665 and a biotinylated substrate. The signal is proportional to the concentration of phospho-residues.
Equipment Required • 1. […] Plate centrifuge • 3. Plate shaker • 4. […] Single channel and multi-channel pipettes • 6. Microplate reader (Pherastar)]
as §1, with “arrived. For Ruxolitinib the starting FAC is 1 μM.” for “arrived.”
• JAK-1: Invtirogen Cat: PR8767C • JAK-2: Invtirogen Cat: PR7820B • JAK-3: Invtirogen Cat: PR7507B • 3. Substrate (synthetic peptide-Biotinylated-N-terminal tag-[…] from Biopeptide) stock and FAC
• Adenosine 5′-triphosphate disodium salt hydrate: Sigma Cat: A26209 • 5. […] Buffers • Base buffer (for 50 ml)
• HTRF buffer: • 50 mM Tris-HCl, pH—7.5 • 100 mM NaCl • 0.1% BSA • 0.05% Tween20 • 0.5 mM EDTA
To a 384 well black-plate: • 1. Add 17 μL of the buffer to each well of the 384-well black plate • 2. […] Add 5 μl of the enzyme to each well of the plate • 4. Add 10 μl of the substrate and ATP mix to all the wells • 5. Cover with plate sealer • 6. […] Incubate at room temperature for 1 hour on shaker • 8. […] Add 37.5 μL of the HTRF mix to these wells. • 9. Incubate the plate at room temperature on shaker for 45 minutes. • 10.
as §2

JAK2, sequence (O60674 whole entry): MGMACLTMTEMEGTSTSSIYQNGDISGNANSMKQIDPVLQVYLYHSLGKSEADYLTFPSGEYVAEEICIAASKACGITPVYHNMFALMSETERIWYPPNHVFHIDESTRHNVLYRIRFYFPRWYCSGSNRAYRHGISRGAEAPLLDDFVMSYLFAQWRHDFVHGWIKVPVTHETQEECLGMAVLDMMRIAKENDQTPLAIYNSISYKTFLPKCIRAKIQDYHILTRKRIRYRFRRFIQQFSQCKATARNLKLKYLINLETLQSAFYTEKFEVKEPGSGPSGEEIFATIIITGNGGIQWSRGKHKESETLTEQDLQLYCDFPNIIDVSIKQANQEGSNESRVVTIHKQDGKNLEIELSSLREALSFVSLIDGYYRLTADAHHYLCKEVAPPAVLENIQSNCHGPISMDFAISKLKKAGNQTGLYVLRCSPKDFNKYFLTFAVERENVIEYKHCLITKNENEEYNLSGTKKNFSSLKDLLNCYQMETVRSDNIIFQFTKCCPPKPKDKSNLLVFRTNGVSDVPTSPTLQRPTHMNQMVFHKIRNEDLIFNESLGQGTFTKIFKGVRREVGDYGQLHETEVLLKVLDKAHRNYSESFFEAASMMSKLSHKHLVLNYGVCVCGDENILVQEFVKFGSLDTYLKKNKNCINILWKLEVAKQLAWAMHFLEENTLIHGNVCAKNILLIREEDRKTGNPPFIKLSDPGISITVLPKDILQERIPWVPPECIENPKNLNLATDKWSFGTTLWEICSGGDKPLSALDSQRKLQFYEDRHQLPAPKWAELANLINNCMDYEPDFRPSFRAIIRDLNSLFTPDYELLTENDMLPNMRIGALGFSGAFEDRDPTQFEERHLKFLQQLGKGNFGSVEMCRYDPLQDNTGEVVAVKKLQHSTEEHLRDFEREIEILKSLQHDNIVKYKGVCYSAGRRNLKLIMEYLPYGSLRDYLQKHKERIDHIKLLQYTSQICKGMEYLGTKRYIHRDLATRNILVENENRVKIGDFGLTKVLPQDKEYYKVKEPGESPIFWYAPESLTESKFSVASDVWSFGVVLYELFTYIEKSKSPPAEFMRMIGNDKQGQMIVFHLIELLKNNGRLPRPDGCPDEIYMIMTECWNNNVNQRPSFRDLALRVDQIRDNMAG

Row | IC50 [1] | IC50 [2] | Compound
1 | 776 nM | 35 nM | CN1CCC(NC(=O)c2ccc(Nc3ncc4ccn(-c5ccc(F)c(NS(=O)(=O)C6CC6)c5)c4n3)cc2F)CC1
2 | 856 nM | 13 nM | CN1CCC(NC(=O)c2ccc(Nc3ncc4ccn(-c5cccc(NS(=O)(=O)C6CC6)c5)c4n3)cc2F)CC1
3 | 1800 nM | 78 nM | CN1CCN(c2ccc(Nc3ncc4ccn(-c5ccc(C#N)c(NS(=O)(=O)C6CC6)c5)c4n3)cc2)CC1
4 | 722 nM | 11 nM | Cc1cc(Nc2ncc3ccn(-c4cccc(NS(=O)(=O)C(C)(C)C)c4)c3n2)ccc1N1CCN(C)CC1
5 | 1600 nM | 2800 nM | COc1cc(N2CCN(C)CC2)ccc1Nc1ncc2ccn(-c3cccc(NS(=O)(=O)C(C)(C)C)c3)c2n1
6 | 1900 nM | 44 nM | CN1CCC(NC(=O)c2ccc(Nc3ncc4ccn(-c5cccc(NS(=O)(=O)C6CC6)c5)c4n3)cc2)CC1
7 | 2720 nM | 51 nM | CN1CCC(c2ccc(Nc3ncc4ccn(-c5cccc(NS(=O)(=O)C6CC6)c5)c4n3)cc2)CC1
8 | 3210 nM | 71 nM | O=S(=O)(Nc1cccc(-n2ccc3cnc(Nc4ccc(C5CCNCC5)cc4)nc32)c1)C1CC1
9 | 5730 nM | 24900 nM | CC(=O)N1CCN(c2ccc(Nc3ncc4ccn(-c5cccc(NS(=O)(=O)C6CC6)c5)c4n3)cc2)CC1
10 | 1130 nM | 152 nM | CN1CCC(NC(=O)c2ccc(Nc3ncc4ccn(-c5ccc(F)c(NS(=O)(=O)C6CC6)c5)c4n3)cc2)CC1
11 | 475 nM | 1600 nM | CC(C)(C)S(=O)(=O)Nc1cc(-n2ccc3cnc(Nc4ccc(C5CCNCC5)cc4)nc32)ccc1F
12 | 1590 nM | 69 nM | O=C(NC1CCNCC1)c1ccc(Nc2ncc3ccn(-c4cccc(NS(=O)(=O)C5CC5)c4)c3n2)cc1F
13 | 2100 nM | 40 nM | O=C(NC1CCNCC1)c1ccc(Nc2ncc3ccn(-c4cccc(NS(=O)(=O)C5CC5)c4)c3n2)cc1
14 | 1810 nM | 15 nM | COc1cc(Nc2ncc3ccn(-c4cccc(NS(=O)(=O)C5CC5)c4)c3n2)ccc1N1CCN(C)CC1
15 | 10000 nM | 8 nM | CN1CCN(c2ccc(Nc3ncc4ccn(-c5cccc6c5CCN6S(=O)(=O)C(C)(C)C)c4n3)cc2)CC1
16 | 866 nM | 14 nM | CN(C)C1CCN(c2ccc(Nc3ncc4ccn(-c5cccc(NS(=O)(=O)C6CC6)c5)c4n3)cc2)CC1
17 | 7080 nM | 10000 nM | CN1CCC(Nc2nc(Nc3cccc(NS(=O)(=O)C(C)(C)C)c3)c3cc[nH]c3n2)CC1
18 | 10000 nM | 11 nM | NC(=O)N1CCN(c2ccc(Nc3ncc4ccn(-c5cccc(NS(=O)(=O)C6CC6)c5)c4n3)cc2)CC1
19 | 372 nM | 177 nM | CN1CCC(NC(=O)c2ccc(Nc3ncc4ccn(-c5ccc(F)c(NS(=O)(=O)C(C)(C)C)c5)c4n3)cc2)CC1
20 | 649 nM | 24 nM | CC(C)(C)S(=O)(=O)Nc1cccc(-n2ccc3cnc(Nc4ccc(C(=O)NC5CCNCC5)cc4)nc32)c1
21 | 1010 nM | 10 nM | CN(C)C1CCN(c2ccc(Nc3ncc4ccn(-c5ccc(F)c(NS(=O)(=O)C6CC6)c5)c4n3)cc2)CC1
22 | 771 nM | 28 nM | CN1CCN(C(=O)c2ccc(Nc3ncc4ccn(-c5cccc(NS(=O)(=O)C(C)(C)C)c5)c4n3)cc2)CC1
23 | 3200 nM | 19 nM | CNC(=O)N1CCN(c2ccc(Nc3ncc4ccn(-c5cccc(NS(=O)(=O)C(C)(C)C)c5)c4n3)cc2)CC1

Row | IC50 [1] | IC50 [2] | Compound
24 | 10000 nM | 456 nM | CC(=O)N1CCC(c2ccc(Nc3ncc4ccn(-c5cccc(NS(=O)(=O)C(C)(C)C)c5)c4n3)cc2)CC1
25 | 272 nM | 90 nM | COc1cc(Nc2ncc3ccn(-c4ccc(F)c(NS(=O)(=O)C(C)(C)C)c4)c3n2)ccc1N1CCN(C)CC1
26 | 10000 nM | 140 nM | CC(=O)N1CCC(c2ccc(Nc3ncc4ccn(-c5cccc(NS(=O)(=O)C6CC6)c5)c4n3)cc2)CC1
27 | 774 nM | 10000 nM | CNc1nc(NC2CCNCC2)nc2c1ccn2-c1cccc(NS(=O)(=O)C(C)(C)C)c1
28 | 1700 nM | 74 nM | CN1CCN(c2cccc(Nc3ncc4ccn(-c5cccc(NS(=O)(=O)C(C)(C)C)c5)c4n3)c2)CC1
29 | 1100 nM | 9 nM | CN1CCN(c2ccc(Nc3ncc4ccn(-c5cccc(N(C)S(=O)(=O)C(C)(C)C)c5)c4n3)cc2)CC1
30 | 561 nM | 22 nM | CNc1cc(Nc2ncc3ccn(-c4cccc(NS(=O)(=O)C(C)(C)C)c4)c3n2)ccc1N1CCN(C)CC1
31 | 258 nM | 82 nM | CN(C)C1CCN(c2ccc(Nc3ncc4ccn(-c5ccc(F)c(NS(=O)(=O)C(C)(C)C)c5)c4n3)cc2)CC1
32 | 406 nM | 64 nM | CC(C)(C)S(=O)(=O)Nc1cccc(-n2ccc3cnc(Nc4ccc(CC(=O)NCCN)cc4)nc32)c1
33 | 123 nM | 170 nM | CN(C)C1CCN(C(=O)c2ccc(Nc3ncc4ccn(-c5ccc(F)c(NS(=O)(=O)C(C)(C)C)c5)c4n3)cc2F)CC1
34 | 10000 nM | 54 nM | CN1CCN(c2ccc(Nc3ncc4ccn(-c5cccc(NC(=O)C(C)(C)C)c5)c4n3)cc2)CC1
35 | 149 nM | 62 nM | CN1CCN(c2ccc(Nc3ncc4ccn(-c5ccc(F)c(NS(=O)(=O)C(C)(C)C)c5)c4n3)cc2F)CC1
36 | 682 nM | 20 nM | CC(C)(C)S(=O)(=O)Nc1cccc(-n2ccc3cnc(Nc4ccc(NCCN)cc4)nc32)c1
37 | 407 nM | 24 nM | CNCCNc1ccc(Nc2ncc3ccn(-c4cccc(NS(=O)(=O)C(C)(C)C)c4)c3n2)cc1
38 | 10000 nM | 2400 nM | CN1CCN(c2ccc(Nc3ncc4ccn(-c5ccccc5NS(=O)(=O)C(C)(C)C)c4n3)cc2)CC1
39 | 193 nM | 359 nM | CNCCNC(=O)Cc1ccc(Nc2ncc3ccn(-c4ccc(F)c(NS(=O)(=O)C(C)(C)C)c4)c3n2)cc1
40 | 145 nM | 51 nM | CN(C)C1CCN(Cc2ccc(Nc3ncc4ccn(-c5cccc(NS(=O)(=O)C(C)(C)C)c5)c4n3)cc2F)CC1
41 | 4600 nM | 40 nM | CC(C)(C)S(=O)(=O)Nc1cccc(-n2ccc3cnc(Nc4ccc(N5CCN(S(C)(=O)=O)CC5)cc4)nc32)c1
42 | 8300 nM | 120 nM | CC(C)S(=O)(=O)N1CCN(c2ccc(Nc3ncc4ccn(-c5cccc(NS(=O)(=O)C(C)(C)C)c5)c4n3)cc2)CC1
43 | 105 nM | 265 nM | CN(C)C1CCN(Cc2ccc(Nc3ncc4ccn(-c5ccc(F)c(NS(=O)(=O)C(C)(C)C)c5)c4n3)cc2F)CC1
44 | 1400 nM | 400 nM | CC(C)(C)S(=O)(=O)Nc1cc(-n2ccc3cnc(Nc4ccc(N5CCN(S(C)(=O)=O)CC5)c(F)c4)nc32)ccc1F
45 | 735 nM | 123 nM | CNC(=O)C1CCN(c2ccc(Nc3ncc4ccn(-c5ccc(F)c(NS(=O)(=O)C(C)(C)C)c5)c4n3)cc2F)CC1

Row | Compound | IC50 [1] | IC50 [2]
46 | CN1CCN(C(=O)Cc2ccc(Nc3ncc4ccn(-c5cccc(NS(=O)(=O)C(C)(C)C)c5)c4n3)cc2)CC1 | 916 nM | 176 nM
47 | CN1CCN(C(=O)Cc2ccc(Nc3ncc4ccn(-c5cccc(NS(=O)(=O)C6CC6)c5)c4n3)cc2)CC1 | 4010 nM | 182 nM
48 | CN1CCN(C(=O)Cc2ccc(Nc3ncc4ccn(-c5ccc(F)c(NS(=O)(=O)C(C)(C)C)c5)c4n3)cc2)CC1 | 643 nM | 239 nM
